Experimental data from patent US5098931A, “7-substituted HMG-CoA reductase inhibitors” (Merck & Co., Inc., priority 1990, dated 1992).

Target: T1, HMG-CoA reductase (Rattus norvegicus, UniProt P51639)
T1 sequence (P51639 1-887): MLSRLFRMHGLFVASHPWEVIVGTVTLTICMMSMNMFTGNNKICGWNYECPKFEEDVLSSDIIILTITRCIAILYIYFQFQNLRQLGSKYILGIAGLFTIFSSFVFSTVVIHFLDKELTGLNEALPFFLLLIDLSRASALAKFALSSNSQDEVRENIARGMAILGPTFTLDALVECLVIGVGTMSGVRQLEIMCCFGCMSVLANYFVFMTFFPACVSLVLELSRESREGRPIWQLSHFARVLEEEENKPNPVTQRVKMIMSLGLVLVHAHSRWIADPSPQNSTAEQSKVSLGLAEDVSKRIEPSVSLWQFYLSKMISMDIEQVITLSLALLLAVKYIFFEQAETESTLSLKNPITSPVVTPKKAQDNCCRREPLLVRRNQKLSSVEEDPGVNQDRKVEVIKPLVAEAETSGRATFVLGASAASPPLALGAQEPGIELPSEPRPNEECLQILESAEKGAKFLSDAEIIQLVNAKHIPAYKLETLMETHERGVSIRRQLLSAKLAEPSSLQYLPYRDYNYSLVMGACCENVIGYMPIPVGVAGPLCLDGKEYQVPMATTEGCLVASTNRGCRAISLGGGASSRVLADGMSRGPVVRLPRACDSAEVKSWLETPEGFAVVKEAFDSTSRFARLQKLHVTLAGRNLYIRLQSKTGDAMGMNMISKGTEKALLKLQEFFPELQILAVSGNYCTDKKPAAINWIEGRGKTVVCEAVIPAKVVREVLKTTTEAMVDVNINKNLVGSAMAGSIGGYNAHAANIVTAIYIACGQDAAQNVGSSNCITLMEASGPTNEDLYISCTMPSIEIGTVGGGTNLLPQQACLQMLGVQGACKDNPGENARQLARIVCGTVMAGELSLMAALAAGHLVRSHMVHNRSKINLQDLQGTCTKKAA
Experiment: intrinsic HMG-CoA reductase inhibition, published in vitro protocol (J. Med. Chem., 28, p. 347-358 (1985))
Format: biochemical
Settings: IC50 of test compound compared with that of compactin (mevastatin) determined simultaneously; compactin assigned a value of 100
Experimental: The intrinsic HMG-CoA reductase inhibition activity of the claimed compounds is measured in the in vitro protocol published in J. Med. Chem., 28, p. 347-358 (1985). […] Representative of the intrinsic HMG-CoA reductase inhibitory activities of the claimed compounds are the following relative potencies for compounds of formula (I).

Going from `CCC(C)(C)C(=O)O[C@H]1[C@H](CO)[C@@H](C)C=C2C=C[C@H](C)[C@H](CC[C@@H]3C[C@@H](O)CC(=O)O3)[C@H]21` [6(R)-[2-[8(R)-(2,2-dimethylbutyryloxy)-2(S)-methyl-6(S)-methyl-7(S)-hydroxymethyl-1,2,6,7,8,8a(R)-hexahydronaphthyl-1(S)]ethyl]-4(R)-hydroxy-3,4,5,6-tetrahydro-2H-pyran-2-one] to `CCC(C)(C)C(=O)O[C@H]1[C@@H](O)[C@@H](C)C=C2C=C[C@H](C)[C@H](CC[C@@H]3C[C@@H](O)CC(=O)O3)[C@H]21` [6(R)-[2-[8(R)-(2,2-dimethylbutyryloxy)-2(S)-methyl-6(S)-methyl-7(S)-hydroxy-1,2,6,7,8,8a(R)-hexahydronaphthyl-1(S)]ethyl]-4(R)-hydroxy-3,4,5,6-tetrahydro-2H-pyran-2-one], the “Relative Potency (Compactin = 100)” value falls from 262 to 214.

Compared with `CCC(C)(C)C(=O)O[C@@H]1[C@H]2C(=C[C@H](C)[C@H]1[C@H](C)O)C=C[C@H](C)[C@@H]2CC[C@@H]1C[C@@H](O)CC(=O)O1` [6R-[2-[8(R)-(2,2-dimethylbutyryloxy)-2(S)-methyl-6(S)-methyl-7(S)-(1(S)-hydroxyethyl)-1,2,6,7,8,8a(R)-hexahydronaphthyl-1(S)]ethyl]-4(R)-hydroxy-3,4,5,6-tetrahydro-2H-pyran-2-one], `CCC(C)(C)C(=O)O[C@@H]1[C@H]2C(=C[C@H](C)[C@H]1[C@@H](C)O)C=C[C@H](C)[C@@H]2CC[C@@H]1C[C@@H](O)CC(=O)O1` [6R-[2-[8(R)-(2,2-dimethylbutyryloxy)-2(S)-methyl-6(S)-methyl-7(S)-(1(R)-hydroxyethyl)-1,2,6,7,8,8a(R)-hexahydronaphthyl-1(S)]ethyl]-4(R)-hydroxy-3,4,5,6-tetrahydro-2H-pyran-2-one] is lower in “Relative Potency (Compactin = 100)” value: 350 for the first, 124 for the second.

Going from `CCC(C)(C)C(=O)O[C@@H]1[C@H]2C(=C[C@H](C)[C@H]1[C@H](O)c1ccccc1)C=C[C@H](C)[C@@H]2CC[C@@H]1C[C@@H](O)CC(=O)O1` [6R-[2-[8(R)-(2,2-dimethylbutyryloxy)-2(S)-methyl-6(S)-methyl-7(S)-(1(S)-hydroxybenzyl)-1,2,6,7,8,8a(R)-hexahydronaphthyl-1(S)]-ethyl]-4(R)-hydroxy-3,4,5,6-tetrahydro-2H-pyran-2-one] to `CCC(C)(C)C(=O)O[C@H]1[C@H](C)[C@@H](C)C=C2C=C[C@H](C)[C@H](CC[C@@H]3C[C@@H](O)CC(=O)O3)[C@H]21` [6(R)-[2-[8(R)-(2,2-dimethylbutyryloxy)-2(S)-methyl-6(S)-methyl-7(R)-methyl-1,2,6,7,8,8a(R)-hexahydronaphthyl-1(S)]ethyl]-4(R)-hydroxy-3,4,5,6-tetrahydro-2H-pyran-2-one], the “Relative Potency (Compactin = 100)” value rises from 137 to 174.
